Assays:
[1] = tested on: Sphaerotheca fuliginea; assay: In vivo preventive test on Sphaerotheca fuliginea (cucumber); settings: preventive spray, 500 ppm of active ingredient, evaluated 7 days after inoculation
Protocol: In Vivo Preventive Test on Sphaerotheca fuliginea (Cucumber)
(§1) Solvent: 49 parts by weight of N,N-dimethylformamide
(§2) Emulsifier: 1 part by weight of alkylarylpolyglycolether
(§3) To produce a suitable preparation of active compound, 1 part by weight of active compound is mixed with the stated amounts of solvent and emulsifier, and the concentrate is diluted with water to the desired concentration.
To test for preventive activity, young plants are sprayed with the preparation of active compound at the stated rate of application. After the spray coating has dried on, the plants are inoculated with an aqueous spore suspension of Sphaerotheca fuliginea. The plants are then placed in a greenhouse at approximately 23° C. and a relative atmospheric humidity of approximately 70%.
The test is evaluated 7 days after the inoculation. 0% means an efficacy which corresponds to that of the untreated control, while an efficacy of 100% means that no disease is observed.

[2] = tested on: Pyrenophora teres; assay: In vivo preventive test on Pyrenophora teres (barley); settings: preventive spray, 500 ppm of active ingredient, evaluated 7-9 days after inoculation
Protocol: In Vivo Preventive Test on Pyrenophora teres (Barley)
Solvent: 49 parts by weight of N,N-dimethylacetamid
Emulsifier: 1 part by weight of alkylaryl polyglycol ether
as §3
To test for preventive activity, young plants are sprayed with the preparation of active compound at the stated rate of application. One day after this treatment, the plants are inoculated with an aqueous spore suspension of Pyrenophora teres. The plants remain for 48 hours in an incubation cabinet at 22° C. and a relative atmospheric humidity of 100%. Then the plants are placed in a greenhouse at a temperature of approximately 20° C. and a relative atmospheric humidity of approximately 80%.
The test is evaluated 7-9 days after the inoculation. 0% means an efficacy which corresponds to that of the untreated control while an efficacy of 100% means that no disease is observed.

[3] = log P by HPLC on reversed-phase column (EEC Directive 79/831 Annex V.A8); format: physicochemical; settings: 0.1% aqueous formic acid and acetonitrile, linear gradient 10% to 90% acetonitrile
Protocol: In table 1, the log P values were determined in accordance with EEC Directive 79/831 Annex V.A8 by HPLC (High Performance Liquid Chromatography) on a reversed-phase column (C 18), using the method described below: Temperature: 40° C.; Mobile phases: 0.1% aqueous formic acid and acetonitrile; linear gradient from 10% acetonitrile to 90% acetonitrile. Calibration was carried out using unbranched alkan-2-ones (comprising 3 to 16 carbon atoms) with known log P values (determination of the log P values by the retention times using linear interpolation between two successive alkanones). lambda-max-values were determined using UV-spectra from 200 nm to 400 nm and the peak values of the chromatographic signals.

[4] = tested on: Alternaria solani; assay: In vivo preventive test on Alternaria solani (tomato); settings: preventive spray, 500 ppm of active ingredient, evaluated 7 days after inoculation
Protocol: In Vivo Preventive Test on Alternaria Solani (Tomato)
as §1, §2, §3
To test for preventive activity, young plants are sprayed with the preparation of active compound at the stated rate of application. One day after this treatment, the plants are inoculated with an aqueous spore suspension of Alternaria solani. The plants remain for one day in an incubation cabinet at approximately 22° C. and a relative atmospheric humidity of 100%. Then the plants are placed in an incubation cabinet at approximately 20° C. and a relative atmospheric humidity of 96%.
The test is evaluated 7 days after the inoculation. 0% means an efficacy which corresponds to that of the untreated control while an efficacy of 100% means that no disease is observed.

[5] = HPLC on reversed-phase column (C 18), 40° C.
[6] = HPLC, reversed-phase C 18, 40° C.

| SMILES | Efficacy [1] | Efficacy [2] | logP [3, 5] | Efficacy [4] | logP [3, 6] |
| --- | --- | --- | --- | --- | --- |
| CCC(NC(=O)c1c(C(F)F)nn(C)c1Cl)c1ccc(Cl)cc1Cl (stereo not drawn) [Example 191] | 100% | 100% | 3.79 | 95% |  |
| Cn1nc(C(F)F)c(C(=O)NC(c2ccccc2Cl)C(F)(F)F)c1Cl (racemic) [Example 19] | 84% |  |  | 90% | 3.33 |
| Cn1nc(C(F)F)c(C(=O)NC(C)(C)c2cc(Cl)cc(Cl)c2)c1Cl [Example 112] | 95% | 95% | 3.73 | 80% |  |
| CCc1ccccc1CN(C(=O)c1c(C(F)F)nn(C)c1F)C1CCC1 [Example 12] | 95% | 100% |  | 90% | 3.63 |
| CC(c1cc(Cl)ccc1Cl)N(C)C(=O)c1c(C(F)F)nn(C)c1Cl (stereo not drawn) [Example 55] | 83% | 100% |  | 95% | 3.33 |
| CCN(Cc1c(Cl)cccc1C(F)(F)F)C(=O)c1c(C(F)F)nn(C)c1F [Example 91] | 95% | 95% |  | 100% | 3.22 |
| C=CCN(Cc1ccccc1C(C)C)C(=O)c1c(C(F)F)nn(C)c1F [Example 71] | 91% | 95% |  | 95% | 3.66 |
| CCC(NC(=O)c1c(C(F)F)nn(C)c1F)c1ccc(Cl)cc1Cl (stereo not drawn) [Example 192] | 100% | 100% | 3.61 | 95% |  |
| CN(Cc1ccccc1[Si](C)(C)C)C(=O)c1c(C(F)F)nn(C)c1F [Example 103] | 91% | 70% |  | 90% | 3.78 |
| CC(NC(=O)c1c(C(F)F)nn(C)c1F)c1ccc(Cl)cc1Cl (stereo not drawn) [Example 36] | 93% | 100% |  | 94% | 4.39 |
| CC(NC(=O)c1c(C(F)F)nn(C)c1Cl)c1ccccc1C(F)(F)F (stereo not drawn) [Example 82] | 94% | 95% |  | 100% | 3.11 |
| CCc1ccccc1CN(CC)C(=O)c1c(C(F)F)nn(C)c1F [Example 13] | 90% | 95% |  | 95% | 3.13 |
| Cn1nc(C(F)F)c(C(=O)NC2(c3ccc(Cl)cc3Cl)CC2)c1F [Example 38] | 89% | 95% |  | 94% | 3.89 |
| CC(NC(=O)c1c(C(F)F)nn(C)c1F)c1ncc(C(F)(F)F)cc1Cl (racemic) [Example 175] | 95% | 100% | 3.19 | 95% |  |
| CC(NC(=O)c1c(C(F)F)nn(C)c1F)c1ccccc1Cl (racemic) [Example 24] | 89% | 100% |  | 94% | 2.75 |
| C#CCN(Cc1ccccc1CC)C(=O)c1c(C(F)F)nn(C)c1F [Example 17] | 94% | 100% |  | 80% | 3.10 |
| CC(C)c1ccccc1CN(CC(F)F)C(=O)c1c(C(F)F)nn(C)c1F [Example 78] | 93% | 100% |  | 100% | 3.49 |
| Cn1nc(C(F)F)c(C(=O)NC2(c3cccc(C(F)(F)F)c3)CCCC2)c1F [Example 108] | 85% | 94% | 3.65 |  |  |

| SMILES | Efficacy [1] | Efficacy [2] | logP [3, 5] | Efficacy [4] | logP [3, 6] |
| --- | --- | --- | --- | --- | --- |
| CC(NC(=O)c1c(C(F)F)nn(C)c1F)c1ccc(-c2ccccc2)cc1 (racemic) [Example 169] | 89% | 100% | 3.46 | 94% |  |
| CC(c1cc(Cl)cc(Cl)c1)N(C)C(=O)c1c(C(F)F)nn(C)c1Cl (stereo not drawn) [Example 116] | 75% | 100% | 3.65 | 95% |  |
| CC(NC(=O)c1c(C(F)F)nn(C)c1Cl)c1ccc(Cl)cc1Cl (stereo not drawn) [Example 33] | 96% | 100% |  | 95% | 4.39 |
| Cn1nc(C(F)F)c(C(=O)NC(C)(C)c2ccccc2Cl)c1F [Example 26] | 88% |  |  | 94% | 2.92 |
| CCc1ccccc1CN(C)C(=O)c1c(C(F)F)nn(C)c1F [Example 15] | 83% | 95% |  | 95% | 2.81 |
| CC(NC(=O)c1c(C(F)F)nn(C)c1F)c1ccc(OCc2ccccc2)cc1 (racemic) [Example 162] | 88% | 100% | 3.41 | 100% |  |
| CC(NC(=O)c1c(C(F)F)nn(C)c1Cl)c1ccccc1Cl (racemic) [Example 20] | 94% | 95% |  | 95% | 2.92 |
| C#CCN(Cc1ccccc1C(C)C)C(=O)c1c(C(F)F)nn(C)c1F [Example 73] | 98% | 100% |  | 95% | 3.37 |
| Cn1nc(C(F)F)c(C(=O)NC2(c3ccc(Cl)c(C(F)(F)F)c3)CC2)c1F [Example 125] | 100% | 95% | 3.27 |  |  |
| CC(C)c1ccccc1CN(C(=S)c1c(C(F)F)nn(C)c1F)C1CCC1 [Example 75] | 100% | 100% |  |  | 4.63 |
| CC(NC(=O)c1c(C(F)F)nn(C)c1Cl)c1ncc(C(F)(F)F)cc1Cl (racemic) [Example 177] | 93% | 100% | 3.48 | 90% |  |
| CC(C)c1ccccc1CN(C(=O)c1c(C(F)F)nn(C)c1F)C1CCC1 [Example 70] | 100% | 100% |  | 90% | 3.90 |
| CC(NC(=O)c1c(C(F)F)nn(C)c1F)c1ccccc1C(F)(F)F (stereo not drawn) [Example 84] | 90% | 100% |  | 100% | 2.96 |
| CC(NC(=O)c1c(C(F)F)nn(C)c1Cl)c1cc(Cl)ccc1Cl (stereo not drawn) [Example 50] | 98% | 95% |  | 95% | 4.39 |
| CC(NC(=O)c1c(C(F)F)nn(C)c1F)c1cc(Cl)ccc1Cl (stereo not drawn) [Example 53] | 95% | 95% |  | 94% | 4.39 |
| Cn1nc(C(F)F)c(C(=O)NC(c2ccc(Cl)cc2Cl)C(F)(F)F)c1F (stereo not drawn) [Example 40] | 83% | 95% |  | 94% | 4.19 |
| Cn1nc(C(F)F)c(C(=O)NCc2ccccc2C2CC2)c1F [Example 65] | 85% | 94% |  | 90% | 2.78 |

From patent US9084424B2, “N-benzyl heterocyclic carboxamides” (BAYER INTELLECTUAL PROPERTY GMBH, priority 2010, dated 2015)
